Data on two compounds can be found in PMC4818757, “Small molecule inhibitors of the Dishevelled‐CXXC5 interaction are new drug candidates for bone anabolic osteoporosis therapy” (EMBO Molecular Medicine, 2016).

The nature of series [1]: Metabolic stability, rat liver microsomes. Format: in vitro ADME. For orientation: Liver microsomes are a subcellular fraction often used to study metabolism.
Series [2] has as its target T1, Dvl–CXXC5 interaction (Homo sapiens, UniProt O14640).
T1 construct: plasmid DNA encoding Dvl-1247- 341 (the Dvl PDZ domain); His-tag (TEV-cleavable) (cleaved yes); made in house; host or cells: E. coli BL21 (DE3)
T1 sequence (O14640 247-341 limits assumed): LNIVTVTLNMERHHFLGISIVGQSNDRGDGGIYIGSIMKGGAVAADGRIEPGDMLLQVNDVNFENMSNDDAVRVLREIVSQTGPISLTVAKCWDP
Nature of the series: Dvl–CXXC5 in vitro binding assay (FITC PolyR-DBM competition). The source says: We tried to search small‐molecule drug candidates activating the Wnt/β‐catenin signaling on the basis of the previous study (Kim et al, 2015). To screen small molecules inhibiting the Dvl–CXXC5 interaction, an in vitro assay system (Fig 1A) was established using purified recombinant Dvl PDZ domain and FITC‐conjugated PolyR‐DBM (Dvl binding motif) (Kim et al, 2015). A chemical with inhibitory activity of Dvl–CXXC5 interaction competes with the FITC‐conjugated peptide for binding to Dvl PDZ domain, which results in a decrease in fluorescence intensity of the well containing the chemical (Fig 1A).
Figure 1 Identification and characterization of small molecules competing Dvl–CXXC5 binding in vitro • A A scheme for in vitro screening method of small molecules competing Dvl–CXXC5 binding. Briefly, purified Dvl PDZ domain was attached to the polystyrene surface of each well of 96‐well plates. Then, PolyR‐DBM (polyarginine‐conjugated Dvl binding motif tagged with FITC) (Kim et al, 2015) was added to each well and allowed to bind to the Dvl PDZ domain; 10 μM small‐molecule compound was added to each well, and the compounds competing with Dvl PZD‐PolyR‐DBM binding were measured by a microplate reader to screen the compounds reducing fluorescence signal. • B Screening results of compounds competing Dvl–CXXC5 interaction. Each 2 μM of the compounds was used for competing as described in Fig 1A. (n = 3) • C, D Primary calvaria cells were treated with 2 μM of each compound for 2 days. The cells were subjected to immunofluorescence analyses to visualize β‐catenin (C; green). The relative numbers of β‐catenin‐positive nuclei were counted (D). (n = 3) • E, F The calvariae from 4‐day‐old mice were cultured ex vivo for 7 days with 2 μM of each compound. Representative calvaria sections were visualized by H&E staining (E). The calvaria thicknesses were measured from the images using Image Pro software (F). (n = 3) Data Information: For B, D, and F, the data are the mean ± s.d. (error bars), and significance was assessed using unpaired Student's t‐test.
For the Dvl–CXXC5 in vitro binding assay, 100 μl of 5 mg/ml purified Dvl PDZ domain was added into each well of a 96‐well Maxibinding Immunoplate (SPL, Seoul, Korea) and incubated overnight in a 4°C chamber. […] After washing with PBS, the fluorescence of each well was measured using a Fluorstar Optima microplate reader (BGM Lab Technologie, Ortenberg, Germany). […]
a The Dvl-CXXC5 in vitro binding assay was performed with 0.1, 1, 3, 10, 30 and 100 µ M of each compound. The IC50 values were calculated using linear regression. b MC3T3E1 cells were cultured in differentiation media with 10 µM of each compound for 4 days and ALP activity levels were quantified to monitor osteogenic differentiation of the cells. […]

For series [3], the system named is MC3T3E1 cells. Kind of series: Relative ALP activity in MC3T3E1 cells. Format: cell-based, murine. Conditions: differentiation media, 10 M of each compound, 4 days. The source says:
Railo et Rev: [NT] al, 2009 Fos-like antigen 1 […] et al, 2003 WNT1 inducible [NT] Railo et signaling pathway Rev: [NT] al, 2009 protein 1 (Wis p1) Activating […] transcription factor Rev: […], 4 (Atf 4) 2007 Cyclin-dependent [NT] Donovan TGFβ kinase inhibitor 1B Rev: [NT] et al, 2002 (Cdkn1b) […] membrane Rev: […], protein 1 (Emp1) 2007 8

Like-named read-outs stand apart in the source and are kept apart here.

`CCOC(=O)c1cc2cc(O)ccc2n1CC(=O)NCCN1CCCCC1` [KY‐02327]: in series [1], the “Metabolic Stability (%) Rat” value came to 11.9% and the “stability, fold more stable than KY‐02061” value came to 2.3 fold. Also, in series [2] (0.1, 1, 3, 10, 30 and 100 µM of each compound, linear regression, read-out: Dvl-CXXC5 in vitro binding IC50), the IC50 was 3.1 µM. In addition, the “IC50 for inhibition of Dvl–CXXC5 interaction, fold lower than for KY‐02061” value in series [2] (vs KY‐02061) came to 7.7 fold. In addition, in series [3], the “Relative ALP activity (%)” value stood at 227%.
With `CCOC(=O)Cn1c(C(=O)OCC)cc2cc(OS(=O)(=O)c3ccc(C)cc3)ccc21` [KY‐02061], in series [1], the “Metabolic Stability (%) Rat” value was found to be 5.1 ± 2.4% and the “metabolic stability (in words)” value is “poor metabolic stability”. In addition, the “reduction of fluorescence intensity” value in series [2] (2 μM compound) is 43.7%. In series [2] (read-out: 50% inhibition concentration (IC50) of Dvl–CXXC5 interaction), the IC50 was 24 µM. Further, the “Relative ALP activity (%)” value in series [3] was determined as 173%.
